Patent US20110178105A1, “CLINICAL BENEFITS OF EICOSAPENTAENOIC ACID IN HUMANS” (E.I. DU PONT DE NEMOURS AND COMPANY, priority 2010, published 2011)

Columns and labels:
[1] = Clinical study: fasting insulin and glucose; format: in vivo, human; details: 6 weeks
Procedure: Standard chemistry tests were carried at all visits (screening, enrollment, and final study visit after an overnight fast by Quest Laboratories, Cambridge, Mass.): blood urea nitrogen, creatinine, calculated glomerular filtration rate, sodium, potassium, chloride, carbon dioxide, calcium, total protein, albumin, globulin, total bilirubin, alkaline phosphatase, liver transaminases AST and ALT, and glucose. A complete blood count was also performed at all visits and included: hemoglobin, hematocrit, red blood cell count, platelet count, white blood cell count and a white blood cell count differential. Additional tests included: prothrombin time, and measurement of thyroid function including T3, T4 and T3 uptake. All subjects entering the study were required to have: liver function tests (i.e., transaminases) of less than 3 times the upper limits of normal; bilirubin and alkaline phosphatase values in the normal range; serum creatinine levels of less than 2.5 mg/dl; hemoglobin levels over 11 g/dl; a normal prothrombin time; a fasting blood glucose below 200 mg/dl; and, a blood pressure below 170/110 mmHg. All subjects who qualified for the study and met all the screening and laboratory entry criteria were scheduled for an enrollment visit within one month of screening.
At visit 2, subjects were again asked to fast for 12 hours, and information about subject characteristics including all vital signs, recent illness or hospitalization, medication and supplement use, and diet information was again obtained. […] At one week and three weeks after beginning the supplements, all study subjects were contacted by telephone and asked about any adverse effects and about their compliance, and the information on their calendars with regard to capsule use and fish intake. They were also asked about whether they had experienced any fishy aftertaste or odor, and if so, how frequent were these episodes, and how unpleasant were they? The entire process as listed above was repeated after study subjects were on the study capsules for 6 weeks at the time of the final visit. Compliance and adverse events were assessed by telephone at weeks 1 and 3 by telephone and at week 6 by questionnaire and capsule count. Over 42 days, subjects were expected to have consumed a total of 252 capsules. Compliance was calculated as a percentage of consumed capsule count/expected capsule count based on the number of days the subject was in the study. All subjects were asked to stay on their capsules until they come in for their final visit. Compliance in all participants who completed the study was based on capsule count was in excess of 85%, mean 96%.
The following laboratory measurements were carried out on an automated analyzer (Roche Diagnostics, Indianapolis, Ind.) on samples obtained in the fasting state at the randomization visit, and the final visits using frozen aliquots of serum stored at −80 degrees Celsius: 1) total cholesterol; 2) triglycerides; 3) direct high density lipoprotein [“HDL”] cholesterol; 4) direct low density lipoprotein [“LDL”] cholesterol; 5) direct small dense LDL cholesterol; 6) apolipoprotein [“apo”] B; 7) apoA-I; 8) lipoprotein (a); 9) fibrinogen; 10) high sensitivity C reactive protein [“hs-CRP”]; 11) lipoprotein associated phospholipase A2 [“Lp-PLA2”]; and, 12) insulin as previously described. See, McNamara, J. R. and Schaefer, E. J., Clin. Chim. Acta, 166:1-8 (1987); Okada, M. et al., J. Lab. Clin. Med., 132:195-201 (1998); Hirano, T. et al., J. Lipid Res., 44:2193-2201 (2003); Ai, M. et al., Am. J. Cardiol., 101:315-318 (2008); Ingelsson, E. et al., JAMA, 298:776-785 (2007); Jenner, J. L. et al., Circulation, 87:1135-1141 (1993); Schaefer, E. J. et al., Am. J. Cardiol., 95:1025-1032 (2005); McNamara, J. R. et al., Atherosclerosis, 154:229-236 (2001).

[2] = cited from earlier work; for better absorbed than EE forms: TG forms
[3] = Clinical study: adverse effects and safety testing; format: in vivo, human
Procedure: The goal of this study was to test the safety and efficacy of an EPA-enriched oil (as described in Examples 1-3; E.I. duPont de Nemours & Co., Inc. Applied Biosciences, Wilmington, Del.), to corroborate the safety of a novel oil rich in EPA in humans prior to this product being placed on the market as a dietary supplement. This oil was tested at doses of 600 mg and 1800 mg of EPA/day as compared to olive oil placebo and a comparator omega-3 oil providing 600 mg of DHA/day over a 6 week period in a parallel arm design in approximately 120 healthy adults studied in both the fasting and post-prandial state. Safety was monitored by assessing for adverse reactions, measuring vital signs and a variety of laboratory tests including a complete metabolic profile, thyroid function tests, complete blood count, and prothrombin time.
Standard chemistry tests were carried at all visits (screening, enrollment, and final study visit after an overnight fast by Quest Laboratories, Cambridge, Mass.): blood urea nitrogen, creatinine, calculated glomerular filtration rate, sodium, potassium, chloride, carbon dioxide, calcium, total protein, albumin, globulin, total bilirubin, alkaline phosphatase, liver transaminases AST and ALT, and glucose. A complete blood count was also performed at all visits and included: hemoglobin, hematocrit, red blood cell count, platelet count, white blood cell count and a white blood cell count differential. Additional tests included: prothrombin time, and measurement of thyroid function including T3, T4 and T3 uptake. […]
At visit 2, subjects were again asked to fast for 12 hours, and information about subject characteristics including all vital signs, recent illness or hospitalization, medication and supplement use, and diet information was again obtained. […] Compliance and adverse events were assessed by telephone at weeks 1 and 3 by telephone and at week 6 by questionnaire and capsule count. […] Compliance was calculated as a percentage of consumed capsule count/expected capsule count based on the number of days the subject was in the study. […]

SMILES	Insulin, 6-Week Change (%) ([1]; DHA 600 mg (n = 28), Fast)	Insulin, Final ([1]; DHA 600 mg (n = 28), Fast) [µIU/mL]	better absorbed than EE forms [2] [%]	fishy odor with belching occasionally experienced (share of subjects) ([3]; DHA 600 mg group) [%]	Glucose, 6-Week Change (%) ([1]; EPA 600 mg (n = 27))	Glucose, Final ([1]; EPA 600 mg (n = 27)) [mg/dL]	Insulin, 6-Week Change (%) ([1]; EPA 600 mg (n = 27))	Insulin, 6-Week Change (%) ([1]; EPA 600 mg (n = 27), Fast)	Insulin, Final ([1]; EPA 600 mg (n = 27), Fast) [µIU/mL]	EPA incorporation into plasma lipids ([2]; administered as an EE)	fishy odor with belching occasionally experienced (share of subjects) ([3]; EPA 600 mg group) [%]	fishy odor with belching occasionally experienced (share of subjects) ([3]; EPA 1800 mg group) [%]
CCC=CCC=CCC=CCC=CCC=CC/C=C\CCC(=O)O [DHA, cis-4,7, 10, 13, 16, 19-docosahexaenoic acid, reference compound]	+26.7 ± 79.8%	8.4 ± 4.1	36	39	–	–	–	–	–	–	–	–
CCC=CCC=CCC=CCC=CC/C=C\CCCC(=O)O [EPA, cis-5,8, 11, 14, 17-eicosapentaenoic acid]	–	–	48	–	+1.3 ± 14.0%	92.1 ± 11.0	+17.4 ± 70.6%	+17.4 ± 70.6%	10.2 ± 7.9	considerably smaller	15	28
